Data as given in patent US9233971B2, “Lipomacrocycles and uses thereof” (priority 2010, dated 2016).

How the values were obtained:
APOB mRNA in liver = experiment: In vivo gene knockdown, lipid particle siRNA formulation (Example 4), APOB siRNA; parameters: species or system CD1 mice; details: for Targeted mRNA remain in liver: lipid particles, APOB siRNA, CD1 mice, liver harvested three days later, real-time RT-PCR, GAPDH reference
Procedure: (§1) Lipid Particle formulations were made by first mixed siRNA in an aqueous solution with DOTMA in organic solvent to produce a water-insoluble precipitate. After isolating and drying the precipitate, the precipitate was dissolved in chloroform and further mixed with other lipids as following: Each lipid particle formulation was consisting of 1 part DOTMA+siRNA complex/5 parts any lipomacrocycle compound (Table 1)/1.5 parts N 6-tetrakis (3-aminopropyl)-1,3-propanediamine cholesteryl carbamate/2.2 parts 1,2-dilinoleoyl-sn-glycero-3-phosphoethanolamine/10.08 parts cholesterol PEG-660/4.32 parts cholesterol PEG-660/0.6 parts cholesterol (weight/weight). All the components were dissolved in chloroform and mixed together. Then, the mixtures were dried overnight in Speedvac. The dried formulations were hydrated by adding in certain amount of 5% dextrose water before dosing to animals intravenously.
(§2) All procedures used in animal studies conducted were approved by the Institutional Animal Care and Use Committee (IACUC) and were consistent with local, state and federal regulations as applicable. Mice, rats, and rabbits received siRNA formulations intravenously at dose volume of 0.2 ml, 1 ml, or 10 ml, respectively. Animals were sacrificed 2 to 7 days later. Tissues were harvested and mRNA was isolated with Turbocapture kit (Qiagen) for analyzing change of gene expression with real-time RT-PCR method (SensiMix SYBR One-Step Kit, Bioline). Serum was harvested for analyzing blood chemistry.
(§3) CD1 mice were dosed with lipid particle (Table 1) or liposome (Table 2) siRNA formulation intravenousely and the different tissues were harvested three days later. The gene expression was analyzed with real-time RT-PCR method (for liver, GAPDH as reference gene; for lung and bone marrow, GAPDG and β-actin as reference genes).

SSB mRNA in liver [1] = experiment: In vivo gene knockdown, liposomal siRNA formulation (Example 3), SSB siRNA; parameters: species or system CD1 mice; details: for Targeted mRNA remain in liver: liposomal formulation, SSB siRNA, dose 3.2 mg/kg intravenously, CD1 mice, liver harvested three days later, real-time RT-PCR, GAPDH reference
Procedure: Each liposome formulation was made by mixing lipids of each lipomacrocycle compound (Table 1) combined with DSPC, DMG-PEG 2K, and cholesterol at the weight ratio of 3.85:0.42:0.21:0.79 in ethanol and siRNA in water. Then 5% dextrose water was added in each formulation before dosing to mice.
as §2, §3

SSB mRNA in liver [2] = experiment: In vivo gene knockdown, lipid particle siRNA formulation (Example 4), SSB siRNA; details: lipid particles, dose 3 mg/kg intravenously, CD1 mice, liver harvested three days later, real-time RT-PCR, GAPDH reference
Procedure: as §1, §2, §3

SMILES	Targeted mRNA remain in liver (SSB mRNA in liver [1])	further results
CCCCCCCCCCCCCCOCC(O)CN(CCCN(C)CCCN(CC(O)COCCCCCCCCCCCCCC)CC(O)COCCCCCCCCCCCCCC)CC(O)COCCCCCCCCCCCCCC (centres unmarked) [Compound B1C1]	0.13	Targeted mRNA remain in liver (APOB mRNA in liver; dose 0.8 mg/kg intravenously): 0.82
CCCCCCCCCCOCC(O)CN(CCCN(C)CCCN(CC(O)COCCCCCCCCCC)CC(O)COCCCCCCCCCC)CC(O)COCCCCCCCCCC (centres unmarked) [Compound B1C2]	0.68	
CCCCCCCCCCOCC(O)CN(CCCN1CCN(CCCN(CC(O)COCCCCCCCCCC)CC(O)COCCCCCCCCCC)CC1)CC(O)COCCCCCCCCCC (centres unmarked) [Compound B2C2]	0.36	
CCCCCCCCCCCCC(O)CN(CCCN1CCN(CCCN(CC(O)CCCCCCCCCCCC)CC(O)CCCCCCCCCCCC)CC1)CC(O)CCCCCCCCCCCC (centres unmarked) [Compound B2C6]	0.08	performance of the lipid molecules, best performing compounds (SSB mRNA in liver [1]; ranking based on the results of Table 2 (liposomal formulation, SSB and APOB siRNA)): best performing
CCCCC(CC)COCC(O)CN(CCCN(CC(O)COCC(CC)CCCC)CC(O)COCC(CC)CCCC)CCCN(CC(O)COCC(CC)CCCC)CC(O)COCC(CC)CCCC (centres unmarked) [Compound D1C3]	0.18	
CCCCCCCCCCCCCCC(O)CN(CCCN(CC(O)CCCCCCCCCCCCCC)CC(O)CCCCCCCCCCCCCC)CCCN(CC(O)CCCCCCCCCCCCCC)CC(O)CCCCCCCCCCCCCC (centres unmarked) [Compound D1C7]	0.52	
CCCCC(CC)COCC(O)CN1CCN(Cc2ccccc2)CCN(CC(O)COCC(CC)CCCC)CCN(CC(O)COCC(CC)CCCC)CC1 (centres unmarked) [Compound M1C3]	0.64	
CCCCCCCCCCCCCCCCC(O)CN1CCN(Cc2ccccc2)CCN(CC(O)CCCCCCCCCCCCCCCC)CCN(CC(O)CCCCCCCCCCCCCCCC)CC1 (centres unmarked) [Compound M1C5]	0.6	
CCCCCCCCCCCCC(O)CN1CCN(Cc2ccccc2)CCN(CC(O)CCCCCCCCCCCC)CCN(Cc2ccccc2)CC1 (centres unmarked) [Compound M6C6]	0.8	
CC(C)CCC[C@@H](C)[C@H]1CC[C@H]2[C@@H]3CC=C4C[C@@H](OC(=O)N5CCN(Cc6ccccc6)CCNCCN(Cc6ccccc6)CC5)CC[C@]4(C)[C@H]3CC[C@]12C [Compound M6ch1]		Targeted mRNA remain in liver (APOB mRNA in liver; dose 3 mg/kg intravenously): 0.86
CCCCC(CC)COCC(O)CN1CCN(CC(O)COCC(CC)CCCC)CCN(CC(O)COCC(CC)CCCC)CCN(CC(O)COCC(CC)CCCC)CCN(CC(O)COCC(CC)CCCC)CCN(CC(O)COCC(CC)CCCC)CC1 (centres unmarked) [Compound M10C3]		Targeted mRNA remain in liver (SSB mRNA in liver [2]): 0.43
CCCCCCCCCCC(O)CN1CCN(CC(O)CCCCCCCCCC)CCN(CC(O)CCCCCCCCCC)CCN(CC(O)CCCCCCCCCC)CCN(CC(O)CCCCCCCCCC)CCN(CC(O)CCCCCCCCCC)CC1 (centres unmarked) [Compound M10C4]		Targeted mRNA remain in liver (SSB mRNA in liver [2]): 0.63
CCCCCCCCCCCCOCC(O)CN1CCN(CC(O)COCCCCCCCCCCCC)CCN(CC(O)COCCCCCCCCCCCC)CCN(CC(O)COCCCCCCCCCCCC)CCN(CC(O)COCCCCCCCCCCCC)CCN(CC(O)COCCCCCCCCCCCC)CC1 (centres unmarked) [Compound M10C8]		Targeted mRNA remain in liver (APOB mRNA in liver; dose 1 mg/kg intravenously): 0.06; performance of the lipid molecules, best compounds (APOB mRNA in liver; ranking based on the results of Table 1 (lipid particles, APOB and SSB siRNA)): best
CC(C)CCC[C@@H](C)[C@H]1CC[C@H]2[C@@H]3CC=C4C[C@@H](OC(=O)N5CCNCCNCCNCCNCCNCC5)CC[C@]4(C)[C@H]3CC[C@]12C [Compound M10ch1]		Targeted mRNA remain in liver (APOB mRNA in liver; dose 3 mg/kg intravenously): 0.39
CCCCC(CC)COCC(O)CN(CCCN(CCCCN(CCCN(CC(O)COCC(CC)CCCC)CC(O)COCC(CC)CCCC)CCCN(CC(O)COCC(CC)CCCC)CC(O)COCC(CC)CCCC)CCCN(CC(O)COCC(CC)CCCC)CC(O)COCC(CC)CCCC)CC(O)COCC(CC)CCCC (centres unmarked) [Compound T4C3]	0.12	
CCCCCCCCCCCCCCOCC(O)CN(CCN(CCN(CC(O)COCCCCCCCCCCCCCC)CC(O)COCCCCCCCCCCCCCC)CCN(CC(O)COCCCCCCCCCCCCCC)CC(O)COCCCCCCCCCCCCCC)CC(O)COCCCCCCCCCCCCCC (centres unmarked) [Compound T5C1]	0.13	

SMILES	Targeted mRNA remain in liver (SSB mRNA in liver [1])	further results
CCCCC(CC)COCC(O)CN(CCN(CCN(CC(O)COCC(CC)CCCC)CC(O)COCC(CC)CCCC)CCN(CC(O)COCC(CC)CCCC)CC(O)COCC(CC)CCCC)CC(O)COCC(CC)CCCC (centres unmarked) [Compound T5C3]	0.43	
CCCCCCCCCCC(O)CN(CCN(CCN(CC(O)CCCCCCCCCC)CC(O)CCCCCCCCCC)CCN(CC(O)CCCCCCCCCC)CC(O)CCCCCCCCCC)CC(O)CCCCCCCCCC (centres unmarked) [Compound T5C4]	0.41	
CC(C)CCC[C@@H](C)[C@H]1CC[C@H]2[C@@H]3CC=C4C[C@@H](OC(=O)NCCN(CCN)CCN)CC[C@]4(C)[C@H]3CC[C@]12C [Compound T5ch1]		Targeted mRNA remain in liver (APOB mRNA in liver; dose 3 mg/kg intravenously): 0.39
CCCCC(CC)COCC(O)CN(CCN(C)CCN(CC(O)COCC(CC)CCCC)CC(O)COCC(CC)CCCC)CC(O)COCC(CC)CCCC (centres unmarked) [MdC3]	0.24	
CCCCCCCCCCCCCCCCC(O)CN(CCN(C)CCN(CC(O)CCCCCCCCCCCCCCCC)CC(O)CCCCCCCCCCCCCCCC)CC(O)CCCCCCCCCCCCCCCC (centres unmarked) [MdC5]	0.45	
CCCCCCCCCCCCC(O)CN(CCN(C)CCN(CC(O)CCCCCCCCCCCC)CC(O)CCCCCCCCCCCC)CC(O)CCCCCCCCCCCC (centres unmarked) [MdC6]	1.1	
CCCCCCCCCCCCCCC(O)CN(CCN(C)CCN(CC(O)CCCCCCCCCCCCCC)CC(O)CCCCCCCCCCCCCC)CC(O)CCCCCCCCCCCCCC (centres unmarked) [MdC7]	0.25	
CCCCCCCCCCOCC(O)CN(CCCN(CCCN(CC(O)COCCCCCCCCCC)CC(O)COCCCCCCCCCC)CC(O)COCCCCCCCCCC)CCCN(CC(O)COCCCCCCCCCC)CC(O)COCCCCCCCCCC (centres unmarked) [NsC2]	0.1	
CCCCCCCCCCC(O)CN(CCCN(CCCN(CC(O)CCCCCCCCCC)CC(O)CCCCCCCCCC)CC(O)CCCCCCCCCC)CCCN(CC(O)CCCCCCCCCC)CC(O)CCCCCCCCCC (centres unmarked) [NsC4]	0.13	
CCCCCCCCCCCCCCC(O)CN(CCCN(CCCN(CC(O)CCCCCCCCCCCCCC)CC(O)CCCCCCCCCCCCCC)CC(O)CCCCCCCCCCCCCC)CCCN(CC(O)CCCCCCCCCCCCCC)CC(O)CCCCCCCCCCCCCC (centres unmarked) [NsC7]	0.1	
CCCCCCCCCCCCCCOCC(O)CN(CCCN(CCCN(CC(O)COCCCCCCCCCCCCCC)CC(O)COCCCCCCCCCCCCCC)CCCN(CC(O)COCCCCCCCCCCCCCC)CC(O)COCCCCCCCCCCCCCC)CC(O)COCCCCCCCCCCCCCC (centres unmarked) [TaC1]	0.1	Targeted mRNA remain in liver (APOB mRNA in liver; dose 0.8 mg/kg intravenously): 0.81
CCCCCCCCCCOCC(O)CN(CCCN(CCCN(CC(O)COCCCCCCCCCC)CC(O)COCCCCCCCCCC)CCCN(CC(O)COCCCCCCCCCC)CC(O)COCCCCCCCCCC)CC(O)COCCCCCCCCCC (centres unmarked) [TaC2]	0.13	
CCCCCCCCCCC(O)CN(CCCN(CCCN(CC(O)CCCCCCCCCC)CC(O)CCCCCCCCCC)CCCN(CC(O)CCCCCCCCCC)CC(O)CCCCCCCCCC)CC(O)CCCCCCCCCC (centres unmarked) [TaC4]	0.12	
CCCCCCCCCCCCC(O)CN(CCCN(CCCN(CC(O)CCCCCCCCCCCC)CC(O)CCCCCCCCCCCC)CCCN(CC(O)CCCCCCCCCCCC)CC(O)CCCCCCCCCCCC)CC(O)CCCCCCCCCCCC (centres unmarked) [TaC6]	0.17	
CCCCCCCCCCCCCCC(O)CN(CCCN(CCCN(CC(O)CCCCCCCCCCCCCC)CC(O)CCCCCCCCCCCCCC)CCCN(CC(O)CCCCCCCCCCCCCC)CC(O)CCCCCCCCCCCCCC)CC(O)CCCCCCCCCCCCCC (centres unmarked) [TaC7]	0.33	
